For one series, the target named is T1, human amylin receptors (Homo sapiens, UniProt O60896+P30988).
T1 construct: host or cells: CHO-K1/Ga15/AMY3 cells, further stably transfected with a CRE-luciferase plasmid
T1 sequence (P30988 25-474): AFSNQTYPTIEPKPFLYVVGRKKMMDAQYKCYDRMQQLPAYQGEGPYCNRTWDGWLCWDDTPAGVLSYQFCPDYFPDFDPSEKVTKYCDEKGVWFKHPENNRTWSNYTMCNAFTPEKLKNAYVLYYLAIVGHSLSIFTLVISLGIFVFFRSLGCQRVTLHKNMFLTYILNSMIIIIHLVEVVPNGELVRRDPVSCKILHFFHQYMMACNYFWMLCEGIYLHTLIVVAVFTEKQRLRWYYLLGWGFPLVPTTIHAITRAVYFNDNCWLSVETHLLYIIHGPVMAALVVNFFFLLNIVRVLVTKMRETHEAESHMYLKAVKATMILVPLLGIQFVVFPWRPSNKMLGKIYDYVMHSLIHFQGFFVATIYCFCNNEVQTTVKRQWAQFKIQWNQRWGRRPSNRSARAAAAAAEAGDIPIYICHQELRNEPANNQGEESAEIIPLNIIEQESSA
T1 sequence (O60896 24-148 partner): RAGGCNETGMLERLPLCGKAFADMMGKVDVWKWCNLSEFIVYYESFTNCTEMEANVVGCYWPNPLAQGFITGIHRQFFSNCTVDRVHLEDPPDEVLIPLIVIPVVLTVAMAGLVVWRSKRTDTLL
Nature of the series: Luciferase assay in stably transfected amylin receptor/CRE-luc CHO cell line. It is filed as cell-based. To be noted: for Relative activity: EC50 ratio of Cagrilintide to the compound, Cagrilintide 100%; for EC50: amylin receptor/CRE-luc CHO cells, 24 hours incubation, luminescence.

The nature of series [1]: Heat accelerated stability assay, 40° C., detection on 10 d and 20 d. It is filed as physicochemical. The conditions noted are these: 1 mg/mL, pH about 7.4, 40° C. An outline of the steps:
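Polypeptide derivatives at 1 mg/mL with sodium dihydrogen phosphate (1.42 mg/mL) in water, pH ~7.4, sterile-filtered and held at 40° C. Sampled at 10 d and 20 d, centrifuged, and supernatant analysed by HPLC (214 nm, 25° C., phosphate pH 5.8/ACN gradient) for concentration and purity.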

A short description of series [2]: Efficacy assay in SD rats, dose-dependent study (Example 5). It is filed as in vivo. To be noted: for Body weight and food intake reduction compared with Cagrilintide: equivalent dosage; for Effect on body weight / Effect on food intake: single subcutaneous dose 10, 30, 100 nmol/kg (FIGS. 3A-3D). On the procedure: SPF male SD rats (7-8 weeks, 220-230 g) were employed in this study after health inspection and quarantine. The experimental animals were exposed to a room temperature of 20° C.-23° C. and a relative humidity of 40%-50%, and were provided with Co60 mouse reproduction feed 1035 and purified water supplied with water feeding bottles for free intake throughout the health inspection and quarantine and the study. […] Using a single dose administered via subcutaneous injection, the study lasted for a total of 6 days with the day of administration designated as Day 1/Time 0 (TO), wherein on Day 0, the initial body weight of the animals were recorded and the initial feed was added, and on Day 1-Day 5, the body weight of the studied animals as well as the remaining food were recorded daily for calculating the percentage of weight change and the amount of food intake, any anomalies during which were required to be recorded and reported. During the study, the rats were in good condition and no anomaly was observed. Weight change=(BWTn−BWT0)/BWT0* 100%, wherein BW represented the value of body weight, and T0 and Tn represented the time points of dosing and n hours post dose respectively. Dots in the figures were represented utilizing mean±standard error of the mean (SEM). Accumulated food intake was the total amount of food intake for each of the animals prior to a certain time point post dose.

A short description of series [3]: Efficacy assay in DIO SD rats, dose-dependent study (Example 6). To be noted: for Body weight and food intake reduction compared with Cagrilintide: equivalent dosage; for Effect on body weight / Effect on food intake: subcutaneous once a day for 10 days, 3 and 10 nmol/kg (FIGS. 4A, 4B). The class given is in vivo. On the procedure:
SPF male DIO SD rats (36-37 weeks, […], fed with high-fat diet for 34 weeks from 3-week age on) were employed in this study. The experimental animals were exposed to a room temperature of 20° C.-23° C. and a relative humidity of 40%-50%, and were provided with high-fat diet D12492 and purified water supplied with water feeding bottles for free intake throughout the construction of the DIO animal model and the study. Based on their mean body weight, the animals were assigned to 6 groups designated as B1-B6 (n=5). Administration via subcutaneous injection was conducted once a day for 10 continuous days, wherein the first day of administration was designated as Day 1 (D1), and on Day 0, the initial body weight of the animals were recorded and the initial feed was added, and on Day 1-Day 11, the body weight of the studied animals as well as the remaining food were recorded daily for calculating the percentage of weight change and the amount of food intake, any anomalies during which were required to be recorded and reported. During the study, the rats were in good condition and no anomaly was observed. Weight change=(BWDn−BWD1)/BWD1*100%, wherein BW represented the value of body weight, and D1 and Dn represented the first and Nth days of administration respectively. Dots in the figures were represented utilizing mean±standard error of the mean (SEM). Accumulated food intake was the total amount of food intake for animals of each group prior to a certain time point post dose.

A further series can be described thus: in vivo. Details: species or system SD rats. To be noted: male, SD, rat, sc, 1 mg/kg. On the procedure: The animals received a subcutaneous injection of corresponding compounds for testing (1 mg/kg and 5 ml/kg), and the day of administration was designated as D1. The whole blood of the animals was collected pre dose (-10 min) on D1 and post dose at D1-2h, D1-4h, D1-6h, D2-24h, D3-48h, D4-72h, D5-96h, and D6-120 h and was processed into plasma (using EDTA for anticoagulation). Liquid chromatography-tandem mass spectrometry (LC-MS/MS) was used to detect the concentration of drug molecules in the plasma, and GraphPad Prism 10 was utilized to plot a concentration-time curve for the drugs whose pharmacokinetic parameters including Cmax, Tmax, T1/2, AUC, and MRT were then calculated with PKSolver.

For series [4] the following is noted: background statement; cited from earlier work.

We go through 3 molecules from patent US20260265329A1, “POLYPEPTIDE AND DERIVATIVE THEREOF, COMPOSITION, AND USE THEREOF” (HANGZHOU SCIWIND BIOSCIENCES CO., LTD., priority 2023, published 2026).

SMILES strings stand for the structures. Starred links: 1 amine or outer side, 2 acyl side, 3 side chain; linkers in the order of their positions; H or OH if unused. Non-standard residues stand in square brackets, D forms with d. Residues, ends and D or L forms follow the SMILES beside them. *: point of attachment. C20 diacid = O=C(O)CCCCCCCCCCCCCCCCCCC(=O)*; γGlu = O=C(O)[C@H](CCC(=O)[*:2])N[*:1]; Hyp = O=C(O)[C@@H]1C[C@@H](O)CN1

A word on the EC50: it is the concentration needed to bring the measured effect to its halfway point. A high value points to a less potent agent. Usually AUC(0-inf) stands for the area under the concentration-time curve extrapolated to infinity. A higher AUC(0-inf) goes with more exposure. As a reminder, the AUC(0-t) is the area under the concentration-time curve up to a stated or last time point. Read a high AUC(0-t) as high exposure. As usually defined, the Cmax is the maximum level reached in the sampled fluid or tissue. For orientation: MRT inf means the average time that molecules of a dose stay in the body. Usually Tmax stands for the time at which the peak concentration occurs. As usually defined, the half-life is how long it takes for the measured level to halve. `CC[C@H](C)[C@H](NC(=O)[C@@H]1CCCN1C(=O)[C@H](CCCCN)NC(=O)[C@H](CC(C)C)NC(=O)[C@H](CCC(N)=O)NC(=O)[C@H](CCC(N)=O)NC(=O)[C@H](CO)NC(=O)[C@H](CO)NC(=O)[C@H](Cc1c[nH]cn1)NC(=O)[C@H](CCCNC(=N)N)NC(=O)[C@H](CC(C)C)NC(=O)[C@H](Cc1ccccc1)NC(=O)[C@H](CC(=O)O)NC(=O)[C@H](C)NC(=O)[C@H](CC(C)C)NC(=O)[C@H](CCCNC(=N)N)NC(=O)[C@H](CCC(N)=O)NC(=O)[C@@H](NC(=O)[C@H](C)NC(=O)[C@H](C)NC(=O)[C@@H](NC(=O)[C@H](CO)NC(=O)[C@H](CC(C)C)NC(=O)[C@H](CCC(N)=O)NC(=O)[C@H](CO)NC(=O)[C@H](C)NC(=O)CC[C@H](NC(=O)CCCCCCCCCCCCCCCCCCC(=O)O)C(=O)O)[C@@H](C)O)[C@@H](C)O)C(=O)N[C@@H](CC(C)C)C(=O)N1CCC[C@H]1C(=O)N1CCC[C@H]1C(=O)N[C@H](C(=O)N[C@@H](CC(N)=O)C(=O)N[C@H](C(=O)NCC(=O)N[C@@H](CO)C(=O)N[C@@H](CC(N)=O)C(=O)N[C@H](C(=O)N1C[C@H](O)C[C@H]1C(N)=O)[C@@H](C)O)C(C)C)[C@@H](C)O` [M41] ({C20 diacid-γGlu}-ASQLSTAATQRLADFLRHSSQQLKPILPPTNVGSNT[Hyp]-NH2): on human amylin receptors, the Relative activity is 113% and the EC50 was found to be 0.08 nM. Moreover, in series [1], the “Reduction in purity, 10 d” value is 2.93% and the “Reduction in purity, 20 d” value worked out at 4.26%. In series [2], the “Body weight and food intake reduction compared with Cagrilintide” value (shortened to “Body weight and food intake reduction”) is on record as “performed better than Cagrilintide at the equivalent dosage”; the “Effect on body weight” value is reported as “dose-dependently reduced”; the “Effect on food intake” value was “dose-dependently reduced”. Also, in series [3], the “Body weight and food intake reduction” value was “performed better than Cagrilintide at the equivalent dosage”; the “Effect on body weight” value is recorded as “dose-dependently reduced”; the “Effect on food intake” value is reported as “dose-dependently reduced”. In “in vivo”, this molecule had an AUC(0-inf) of 257 µg·h/mL, an AUC(0-t) of 250 µg·h/mL, a Cmax of 4780 ng/mL and an MRT inf of 45.9 h. For the same molecule, in “in vivo”, the Tmax came to 24 h and the half-life is 23.7 h.
Take `CC[C@H](C)[C@H](NC(=O)[C@@H]1CCCN1C(=O)[C@H](CCCCN)NC(=O)[C@H](CC(C)C)NC(=O)[C@H](CO)NC(=O)[C@H](CO)NC(=O)[C@H](CO)NC(=O)[C@H](CO)NC(=O)[C@H](Cc1c[nH]cn1)NC(=O)[C@H](CCCNC(=N)N)NC(=O)[C@H](CC(C)C)NC(=O)[C@H](Cc1ccccc1)NC(=O)[C@H](CC(=O)O)NC(=O)[C@H](C)NC(=O)[C@H](CC(C)C)NC(=O)[C@H](CCCNC(=N)N)NC(=O)[C@H](CCC(N)=O)NC(=O)[C@@H](NC(=O)[C@H](C)NC(=O)[C@H](C)NC(=O)[C@@H](NC(=O)[C@H](CO)NC(=O)[C@H](CC(C)C)NC(=O)[C@H](CCC(N)=O)NC(=O)[C@H](CO)NC(=O)[C@H](C)NC(=O)CC[C@H](NC(=O)CCCCCCCCCCCCCCCCCCC(=O)O)C(=O)O)[C@@H](C)O)[C@@H](C)O)C(=O)N[C@@H](CC(C)C)C(=O)N1CCC[C@H]1C(=O)N1CCC[C@H]1C(=O)N[C@H](C(=O)N[C@@H](CC(N)=O)C(=O)N[C@H](C(=O)NCC(=O)N[C@@H](CO)C(=O)N[C@@H](CC(N)=O)C(=O)N[C@H](C(=O)N1C[C@H](O)C[C@H]1C(N)=O)[C@@H](C)O)C(C)C)[C@@H](C)O` [M43] ({C20 diacid-γGlu}-ASQLSTAATQRLADFLRHSSSSLKPILPPTNVGSNT[Hyp]-NH2): at human amylin receptors, the Relative activity is listed as 180% and the EC50 is 0.05 nM. In series [1], the “Reduction in purity, 10 d” value is 3.6% and the “Reduction in purity, 20 d” value is on record as 6.6%. Further, in series [2], the “Body weight and food intake reduction” value is “performed better than Cagrilintide at the equivalent dosage”; the “Effect on body weight” value is “dose-dependently reduced”; the “Effect on food intake” value is listed as “dose-dependently reduced”. In series [3], the “Body weight and food intake reduction” value was “performed better than Cagrilintide at the equivalent dosage”; the “Effect on body weight” value is “dose-dependently reduced”; the “Effect on food intake” value is listed as “dose-dependently reduced”. In “in vivo”, this molecule registered an AUC(0-inf) of 217 µg·h/mL, an AUC(0-t) of 214 µg·h/mL, a Cmax of 4930 ng/mL and an MRT inf of 39 h. Also, in the series “in vivo”, the Tmax was found to be 24 h and the half-life was 21.3 h.
Consider `CC[C@H](C)[C@H](NC(=O)[C@@H]1CCCN1C(=O)CNC(=O)[C@H](Cc1ccccc1)NC(=O)[C@H](CC(N)=O)NC(=O)[C@H](CC(N)=O)NC(=O)[C@H](CO)NC(=O)[C@H](CO)NC(=O)[C@H](Cc1c[nH]cn1)NC(=O)[C@@H](NC(=O)[C@H](CC(C)C)NC(=O)[C@H](Cc1ccccc1)NC(=O)[C@H](CC(N)=O)NC(=O)[C@H](C)NC(=O)[C@H](CC(C)C)NC(=O)[C@H](CCCNC(=N)N)NC(=O)[C@H](CCC(N)=O)NC(=O)[C@@H](NC(=O)[C@H](C)NC(=O)[C@@H]1CSSC[C@H](NC(=O)[C@@H](N)CCCCN)C(=O)N[C@@H](CC(N)=O)C(=O)N[C@@H]([C@@H](C)O)C(=O)N[C@@H](C)C(=O)N[C@@H]([C@@H](C)O)C(=O)N1)[C@@H](C)O)C(C)C)C(=O)N[C@@H](CC(C)C)C(=O)N1CCC[C@H]1C(=O)N1CCC[C@H]1C(=O)N[C@H](C(=O)N[C@@H](CC(N)=O)C(=O)N[C@H](C(=O)NCC(=O)N[C@@H](CO)C(=O)N[C@@H](CC(N)=O)C(=O)N[C@H](C(=O)N[C@@H](Cc1ccc(O)cc1)C(N)=O)[C@@H](C)O)C(C)C)[C@@H](C)O` [Pramlintide], for which the fibrillation result in series [4] is recorded as “fibrillates at pH 7”.
